According to patent US9808448B2, “Pharmaceutical compounds and use of same in cancer and tauopathies” (THE REGENTS OF THE UNIVERSITY OF MICHIGAN, priority 2013, dated 2017):
“Also recorded” adds a separate entry of the source.

Experiments:
[1] = biological target: yeast Hsp70 (Ssa1p) and Hlj1p (Saccharomyces cerevisiae, UniProt P10591); experiment: Single turnover ATPase assay; assay type: biochemical
Experimental: Next, the effect of chaperone functions by binding of YM-08 to Hsp70 was investigated. […] This profile is shared with other allosteric Hsp70 inhibitors. As another test of chaperone function, the effects of the compounds on the binding of Hsp70 to a misfolded protein were measured. In previous work, MKT-077 stabilized the interaction between prokaryotic Hsp70 (DnaK) and denatured luciferase. Briefly, this assay involves immobilizing unfolded luciferase in microtiter plates and measuring binding to DnaK. […] To explore whether YM-08 might also enhance binding of Hsp70 to a more physiologically relevant substrate, binding of tau to immobilized human Hsc70 was measured.
Single turnover ATPase assays were performed as previously described in, e.g., Fewell, et al., J. Biol. Chem., 279:51131-51140 (2004), and Chiang, et al., Bioorg. Med. Chem., 17:1527-1533 (2009). Briefly, the yeast Hsp70, Ssa1p (about 0.2 μM), was prebound to α-[32P]ATP. The hydrolysis of ATP in the presence or absence of an equimolar amount of Hlj1 was measured by monitoring the generation of α-[32P]ADP by thin layer chromatography (TLC).

[2] = Solubility in dosing vehicle; assay type: physicochemical
Experimental: (A) Initial pharmacokinetics and biodistribution of YM-01 and YM-08. Compounds were suspended in buffered saline (YM-01) or 10% DMSO/saline (YM-08) and injected at 20 and 10 mg/kg, respectively. YM-08 was not soluble in saline or 10% DMSO/saline at 20 mg/kg. The levels of YM-08 in the brain at 1 hr after injection could not be accurately determined because its value was outside the calibration curve. […] Results are average from data acquired from three female mice. (C) YM-08 maintains a B/P ratio of nearly 0.25 for 18 hrs.
The initial pharmacokinetics (PK) of YM-01 and YM-08 were tested in CD1 mice. […] After a single 6.6 mg/kg dose delivered i.v., the peak brain concentration of YM-08 was 4 μg/g (FIG. 7B) and the ratio in the brain:plasma (B/P) ratio was approximately 0.25 for 18 hrs (FIG. 7C). […] It is not yet clear how much tau levels need to be reduced to achieve therapeutic effects in disease models, but the area-under-the-curve (AUCinf) for YM-08 in the brain was 0.26 μg·hr/g and the AUCinf in plasma was 13.6 μg·hr/mL.

[3] = test system: human 4R0N tau in HeLaC3 cells; experiment: Tau levels in HeLaC3 cells by Western blot; assay type: cell-based
Experimental: To determine whether YM-08 might also accelerated tau degradation, HeLaC3 cells, which stably over-express human 4R0N tau, were treated with compound. After 24 hours, the levels of phosphorylated (p396/404) tau and total tau were measured by Western blot. […] This cellular activity is not as dramatic as that of MKT-077, which reduced tau levels by >80% at 30 μM (FIG. 4D); however, reducing tau by only about 50% is predicted to provide benefits in some AD models.

[4] = test system: phospho- and total tau in brain slices from transgenic P301L tau mice (Tg4510); experiment: Tau levels in transgenic brain slice cultures; assay type: cell-based, mouse; settings: 30 and 100 μM, 6 hours
Experimental: YM-08 activity in a more physiological system was tested. Brain slice cultures from transgenic mice that express mutated tau were treated for 6 hours with YM-08 and the levels of total- and pS396/404 tau measured by Western blots. […] To test whether YM-08 might selectively reduce tau after microtubule disruption, brain slices were cultured from wild type mice and treated them with YM-08 plus the microtubule destabilizer, nocodazole. […] Together, these studies add to growing evidence that Hsp70 selectively identifies tau variants that are not associated with the normal microtubule network, likely minimizing their aggregation and proteotoxicity.

Sequence of yeast Hsp70 (Ssa1p) and Hlj1p (P10591 whole entry): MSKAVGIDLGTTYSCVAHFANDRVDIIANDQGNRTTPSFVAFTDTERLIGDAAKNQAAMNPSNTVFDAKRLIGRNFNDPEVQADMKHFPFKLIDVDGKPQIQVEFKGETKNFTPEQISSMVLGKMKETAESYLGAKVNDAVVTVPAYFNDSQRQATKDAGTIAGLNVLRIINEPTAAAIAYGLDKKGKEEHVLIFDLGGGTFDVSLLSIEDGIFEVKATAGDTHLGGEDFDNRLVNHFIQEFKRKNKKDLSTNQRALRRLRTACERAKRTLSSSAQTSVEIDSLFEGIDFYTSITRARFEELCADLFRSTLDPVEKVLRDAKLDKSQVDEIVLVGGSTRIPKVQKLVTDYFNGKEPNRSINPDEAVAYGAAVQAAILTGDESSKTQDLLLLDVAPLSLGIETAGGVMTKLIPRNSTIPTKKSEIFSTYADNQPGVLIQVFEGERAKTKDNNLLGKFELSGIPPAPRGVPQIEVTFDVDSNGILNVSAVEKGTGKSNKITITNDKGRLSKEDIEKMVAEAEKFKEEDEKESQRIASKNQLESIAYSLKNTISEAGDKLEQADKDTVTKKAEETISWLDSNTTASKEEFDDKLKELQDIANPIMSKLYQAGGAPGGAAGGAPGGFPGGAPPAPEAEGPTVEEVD

Question: Which “ATP turnover, Hlj1-stimulated ATPase activity” value ([1]; Ssa1 plus Hlj1) does the source give for `CCn1c(=O)/c(=C2\Sc3ccccc3N2C)s/c1=C\c1ccccn1` [YM-08, (2Z,5E)-3-ethyl-5-(3-methylbenzo[d]thiazol-2(3H)-ylidene)-2-(pyridin-2-ylmethylene)thiazolidin-4-one] here?
Answer: partially inhibited

Question: And the “intrinsic ATPase activity of Ssa1” value ([1]; without Hlj1)?
Answer: minimal effect

Question: What about the “solubility in saline or 10% DMSO/saline” value [2] of the same molecule?
Answer: not soluble; also recorded: only marginally soluble

Question: What about the “anti-tau activity in cells” value [3] of the same molecule?
Answer: reduced phospho (p396/404) and total tau

Question: What about the “decrease of pS396/404 tau level” value ([3]; 30 μM, 24 hours) of the same molecule?
Answer: about 40%

Question: And the “decrease of total tau level” value ([3]; 30 μM, 24 hours)?
Answer: about 60%

Question: What about the phospho-tau level [4] of the same molecule?
Answer: reduced phospho-tau
